In brackets after ≈: the same amount, converted by molar mass.
How the values were obtained:
N. gonorrhoeae [1] = assay: MIC against N. gonorrhoeae clinical isolates, normal and CO2 conditions; type: cell-based; conditions: Neisseria gonorrhoeae
Method: (§1) These tests were performed in normal culture conditions with standard CO2 levels and in CO2 (5% in incubator) conditions.

N. gonorrhoeae [2] = assay: Post-antibiotic effect (PAE); type: cell-based; conditions: after exposure to 10×MIC for 1 hour
N. gonorrhoeae [3] = assay: Multi-step resistance selection; type: cell-based; conditions: after 9 passages
From the text: Frequency of mutation—multi-step mutation—We investigated N. gonorrhoeae's ability to develop resistance to CAIs using the multi-step resistance selection experiment^58.
N. gonorrhoeae cultures that grew at the highest concentrations of the compound are used as an inoculum for the subsequent culture.

ATCC strain 700825 = assay: MICs against ATCC strain 700825; type: cell-based, N. gonorrhoeae; conditions: Neisseria gonorrhoeae
Method: as §1

[4] = system: intracellular N. gonorrhoeae; assay: Intracellular clearance of N. gonorrhoeae in infected endocervical cells (End1/E6E7); type: cell-based; conditions: 5×MIC, 24 hours
From the text: Intracellular clearance of N. gonorrhoeae—N. gonorrhoeae is known to invade epithelial cells of the genital tract and cross the epithelial barrier into the subepithelial space^59. Previous studies have shown that N. gonorrhoeae can survive inside host cells and pass epithelial cell layers (a key step in causing disseminated infections)^60,61. Therefore, a drug candidate must also be able to kill intracellular N. gonorrhoeae in order to be an effective therapeutic. Also, we were concerned that CAIs have reduced activity in high-CO2 conditions and may not be suitable to treat intracellular infection. Thus, we examined CAIs ability to reduce the burden of intracellular N. gonorrhoeae present in infected endocervical cells^56.

[5] = N. gonorrhoeae 178, Non CO2 environment
[6] = N. gonorrhoeae 178, normal growth environment (with CO2)
[7] = N. gonorrhoeae 181, Non CO2 environment
[8] = N. gonorrhoeae 181, normal growth environment (with CO2)
[9] = N. gonorrhoeae 194, Non CO2 environment
[10] = N. gonorrhoeae 194, normal growth environment (with CO2)

Compound	MIC (N. gonorrhoeae [1]; [5]) [mg/L]	MIC (N. gonorrhoeae [1]; [6]) [mg/L]	MIC (N. gonorrhoeae [1]; [7]) [mg/L]	MIC (N. gonorrhoeae [1]; [8]) [mg/L]	MIC (N. gonorrhoeae [1]; [9]) [mg/L]	MIC (N. gonorrhoeae [1]; [10]) [mg/L]	PAE (N. gonorrhoeae [2]; Ng 181) [h]	PAE (N. gonorrhoeae [2]; Ng 186) [h]	PAE (N. gonorrhoeae [2]; Ng 194) [h]	PAE (N. gonorrhoeae [2]; Ng 198) [h]	PAE (N. gonorrhoeae [2]; clinical isolates of N. gonorrhoeae) [h]	increase in MIC (N. gonorrhoeae [3]) [fold]	MIC (ATCC strain 700825; ATCC700825, In CO2) [mg/L]	MIC (ATCC strain 700825; ATCC700825, In air) [mg/L]	reduction in N. gonorrhoeae inside infected endocervical cells [4] [log10]
NS(=O)(=O)c1nnc(NC(=O)CN2CCCC2)s1 [CAI 0037]	> 64	> 64	> 64	> 64	> 64	> 64									
CC(C)C(=O)Nc1nnc(S(N)(=O)=O)s1 [CAI 0011]	16 (≈ 63.9 µM)	32 (≈ 128 µM)	16 (≈ 63.9 µM)	> 64	8 (≈ 32 µM)	64 (≈ 256 µM)									
CCNc1nnc(S(N)(=O)=O)s1 [CAI 0032]	64 (≈ 307 µM)	> 64	> 64	> 64	> 64	> 64									
CCC(=O)Nc1nnc(S(N)(=O)=O)s1 [CAI 009]	8 (≈ 33.9 µM)	16 (≈ 67.7 µM)	8 (≈ 33.9 µM)	> 64	16 (≈ 67.7 µM)	64 (≈ 271 µM)									
NS(=O)(=O)c1nnc(NC(=O)C2CC2)s1 [CAI 0020]	2 (≈ 8.06 µM)	64 (≈ 258 µM)	2 (≈ 8.06 µM)	64 (≈ 258 µM)	4 (≈ 16.1 µM)	> 64									
NS(=O)(=O)c1nnc(NC(=O)CCC2CCCC2)s1 [CAI 0015]	2 (≈ 6.57 µM)	16 (≈ 52.6 µM)	1 (≈ 3.29 µM)	> 64	4 (≈ 13.1 µM)	64 (≈ 210 µM)									
CC[C@H]1OC(=O)[C@H](C)[C@@H](O[C@H]2C[C@@](C)(OC)[C@@H](O)[C@H](C)O2)[C@H](C)[C@@H](O[C@@H]2O[C@H](C)C[C@H](N(C)C)[C@H]2O)[C@](C)(O)C[C@@H](C)CN(C)[C@H](C)[C@@H](O)[C@]1(C)O [Azithromycin]	0.25 (≈ 0.334 µM)	1 (≈ 1.34 µM)	> 128	> 128	0.25 (≈ 0.334 µM)	0.5 (≈ 0.668 µM)	8	8	8	8	8				
CC(=O)Nc1ccc(S(N)(=O)=O)cc1 [CAI 0030]	8 (≈ 37.3 µM)	> 64	32 (≈ 149 µM)	> 64	16 (≈ 74.7 µM)	> 64									
NS(=O)(=O)c1nnc(NC(=O)C2CCCC2)s1 [CAI 0023]	8 (≈ 28.9 µM)	32 (≈ 116 µM)	8 (≈ 28.9 µM)	64 (≈ 232 µM)	8 (≈ 28.9 µM)	64 (≈ 232 µM)									
CC(C)(C)CC(=O)Nc1nnc(S(N)(=O)=O)s1 [CAI 0028]	8 (≈ 28.7 µM)	32 (≈ 115 µM)	16 (≈ 57.5 µM)	64 (≈ 230 µM)	32 (≈ 115 µM)	64 (≈ 230 µM)									
O=C(O)c1cn(C2CC2)c2cc(N3CCNCC3)c(F)cc2c1=O [Ciprofloxacin]												300			
NS(=O)(=O)c1nnc(NC(=O)c2ccccc2)s1 [CAI 0012]	2 (≈ 7.03 µM)	16 (≈ 56.3 µM)	4 (≈ 14.1 µM)	> 64	2 (≈ 7.03 µM)	64 (≈ 225 µM)									
NS(=O)(=O)c1nnc(NC(=O)C2CCCCC2)s1 [CAI 0022]	4 (≈ 13.8 µM)	32 (≈ 110 µM)	2 (≈ 6.89 µM)	64 (≈ 220 µM)	4 (≈ 13.8 µM)	> 64									
NS(=O)(=O)c1nnc(NC(=O)C2CCC2)s1 [CAI 0018]	16 (≈ 61 µM)	64 (≈ 244 µM)	16 (≈ 61 µM)	> 64	8 (≈ 30.5 µM)	32 (≈ 122 µM)									
NS(=O)(=O)c1nnc(NC(=O)CCc2ccccc2)s1 [CAI 0041]													4 (≈ 12.8 µM)	0.5 (≈ 1.6 µM)	
CO/N=C(\C(=O)N[C@@H]1C(=O)N2C(C(=O)O)=C(CSc3nc(=O)c(=O)[nH]n3C)CS[C@H]12)c1csc(N)n1 [ceftriaxone]															0.32

— US20220213047A1, “CARBONIC ANHYDRASE INHIBITORS FOR TREATMENT OF NEISSERIA GONORRHOEAE INFECTION” (Purdue Research Foundation, priority 2021, published 2022)
